In brackets after ≈: the same amount, converted by molar mass. Positions of bridges follow the written chain, without caps; N, C: chain ends. Non-standard residues stand in square brackets, D forms with d. Residues, ends and D or L forms follow the SMILES beside them.
Legend:
[1] = Redox conversion in the presence of glutathione; format: physicochemical; conditions: in the presence of low levels of glutathione
Text: The drug substance is isolated as the disulfide, with the disulfide bond cyclizing the D-cys10 and D-cys12 residues. The synthesis, cleavage, oxidation and purification steps use standard solid phase procedures as described in the literature. A solution phase procedure for converting the peptide to the cyclic disulfide was developed. […] The biological properties of GO-203-2c will in part be governed by glutathione, which provides a significant portion of in vivo redox buffering capacity as mentioned above. Total glutathione levels approximate 20-30 μM in blood plasma, 0.5 mM in whole blood, and 5-10 mM intracellularly. […] Intracellular glutathione concentrations are sufficient to convert GO-203-2c (disulfide) to the GO-203-2 (dithiol) species that binds to the biological target, MUC1-CD.

[2] = system: ZR-75-1 Breast cancer cells; assay: Inhibition of cell proliferation, trypan blue exclusion (Table 1); format: cell-based, human; conditions: 5 μM peptide every day, 6-day treatment
Method: Cells (ZR-75-1 breast carcinoma or H-1975 non-small cell lung carcinoma) were plated separately in 24-well plates for 24 hours prior to treatment with different peptides. The cells were then treated with 5 μM (final concentration) of different peptides every day for 4-6 days. On the day of termination, cells were washed two times with PBS and trypsinized with 0.3 ml of Trypsin/EDTA. Cell growth media was used to stop the trypsin reaction. Following washing, the cells were centrifuged and the cell pellets were re-suspended in PBS for counting in hemacytometer.
The trypan blue dye exclusion method was used to determine the number of viable cells present in a cell suspension. Cell suspension was mixed as 1:1 with the trypan blue dye and then visually examined in a hemacytometer. A viable cell will have a clear cytoplasm whereas a non-viable/dead cell will be stained with trypan blue dye. By doing this trypan blue exclusion method, viable cell numbers were counted and percent inhibition of proliferation was then calculated comparing with untreated controls.

muscarinic M2 receptor = muscarinic M2 receptor (Homo sapiens, UniProt P08172); assay: biochemical
MUC1-CD = MUC1-CD oligomerization in transfected HEK 293T cells, species comparison; format: cell-based; conditions: MUC1-CD from rat, dog and human compared
Method: Studies were also conducted to confirm pharmacological relevance of the rodent and nonrodent species chosen for toxicology studies, namely the rat and dog, respectively. MUC1-CD amino acid sequence was determined to be greater than 80% identical between rat, dog and human proteins, and similar expression of MUC1 was found in stomach, intestinal and lung epithelium from the different species using immunohistochemical staining. […] The results of these studies indicate that potential MUC1-CD targets in the rat, dog and human are similar with respect to sequence, tissue expression and responsiveness to inhibition of oligomerization by GO-203-2c, and confirm pharmacological relevance of the species chosen for nonclinical safety assessment of GO-203-2c.

[3] = Dog pivotal repeat-dose toxicity study; format: in vivo; conditions: for Safety margin: human starting dose lower than NOAEL: 3 mg/m^2 human starting dose
Method: The proposed clinical trial will be a multicenter, open-label, dose-escalation, safety, pharmacodynamic and pharmacokinetic study in patients with advanced solid tumors administered GO-203-2c IV over 60 min once per day for 21 consecutive days; this dosing regimen will be repeated every 28 days. Since the majority of the treatment-related findings in rats and dogs were localized at the infusion site or were secondary to the infusion site reactions, the no-observed-adverse-effect-level (NOAEL) for systemic toxicity in the pivotal repeat-dose rat toxicity study was determined to be 5 mg/kg/day. The highest non-severely toxic dose (HNSTD), which was also considered the NOAEL, was established as 1 mg/kg/day in the dog pivotal repeat-dose toxicity study. For vascular injury at the injection site, the NOAEL in rats is […]. This concentration rate is 25-fold greater than the estimated concentration rate for humans (0.83 μg/mL/min) at the recommended starting dose of 3 mg/m2/day (assumes a body mass of 1.65 m2).

Solubility = format: physicochemical; conditions: for solubility: as peptide
[4] = molecular target: norepinephrine transporter (Homo sapiens, UniProt P23975); assay: biochemical
ZR-75-1 breast carcinoma = conditions: human
Method: (§1) GO-203-2 and GO-203-2c were evaluated for ability to inhibit proliferation of murine and human carcinoma cell lines in vitro. Test compound (5 μM final concentration) was added to tumor cell cultures daily for 5 to 6 days, and cell viability was determined by trypan blue dye exclusion.

H1650 NSCLC = conditions: human
Method: as §1

KW-814 T6 NSCLC = conditions: mouse
Method: as §1

MCF-7 breast carcinoma = conditions: human
Method: as §1

[5] = system: MiaPaCa-2 pancreatic carcinoma; conditions: human
Method: as §1

A549 NSCLC = conditions: human
Method: as §1

KW-807 LN NSCLC = conditions: mouse
Method: as §1

H1975 NSCLC = conditions: human
Method: as §1

[6] = system: ZR-75-1 human breast carcinoma xenograft; assay: ZR-75-1 human breast carcinoma xenograft model, daily dosing for 21 days; format: in vivo, mouse; conditions: nu/nu mice
Method: Efficacy of GO-203-2c was evaluated in a ZR-75-1 human breast carcinoma xenograft model. Female nu/nu mice (20-30 g; Charles River Laboratories, Wilmington, Mass.) were injected in the thigh with 5 million ZR-75-1 cells in Matrigel suspension. Mice also received subcutaneous 17-β-estradiol pellets. When tumors reached 100-200 mm^3 in size (approximately 12-15 days after implantation), mice were split into 4 groups of 5 mice and administered the following treatments daily for 21 days: phosphate-buffered saline (PBS) IP, 1 mg/kg GO-203-2c IV, 4 mg/kg GO-203-2c IV or 4 mg/kg control peptide CP-3 IV. Each animal was sacrificed when the tumor reached the predetermined endpoint size (˜2500 mm^3) or when the animals remained tumor-free for 180 days after implantation of the tumor cells.

muscarinic M2 receptor, sequence (P08172 whole entry): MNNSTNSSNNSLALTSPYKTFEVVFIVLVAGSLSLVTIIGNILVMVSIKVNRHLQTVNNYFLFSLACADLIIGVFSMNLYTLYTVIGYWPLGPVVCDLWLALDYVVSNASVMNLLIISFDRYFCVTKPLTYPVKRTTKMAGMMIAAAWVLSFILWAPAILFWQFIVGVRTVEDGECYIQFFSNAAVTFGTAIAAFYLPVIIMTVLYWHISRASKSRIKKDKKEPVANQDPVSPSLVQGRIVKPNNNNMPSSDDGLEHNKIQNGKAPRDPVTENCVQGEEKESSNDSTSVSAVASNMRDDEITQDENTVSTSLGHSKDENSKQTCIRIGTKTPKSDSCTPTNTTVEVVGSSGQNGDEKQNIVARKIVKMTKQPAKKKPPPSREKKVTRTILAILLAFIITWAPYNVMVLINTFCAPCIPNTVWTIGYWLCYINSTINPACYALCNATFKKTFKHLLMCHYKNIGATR
norepinephrine transporter, sequence (P23975 whole entry, species assumed): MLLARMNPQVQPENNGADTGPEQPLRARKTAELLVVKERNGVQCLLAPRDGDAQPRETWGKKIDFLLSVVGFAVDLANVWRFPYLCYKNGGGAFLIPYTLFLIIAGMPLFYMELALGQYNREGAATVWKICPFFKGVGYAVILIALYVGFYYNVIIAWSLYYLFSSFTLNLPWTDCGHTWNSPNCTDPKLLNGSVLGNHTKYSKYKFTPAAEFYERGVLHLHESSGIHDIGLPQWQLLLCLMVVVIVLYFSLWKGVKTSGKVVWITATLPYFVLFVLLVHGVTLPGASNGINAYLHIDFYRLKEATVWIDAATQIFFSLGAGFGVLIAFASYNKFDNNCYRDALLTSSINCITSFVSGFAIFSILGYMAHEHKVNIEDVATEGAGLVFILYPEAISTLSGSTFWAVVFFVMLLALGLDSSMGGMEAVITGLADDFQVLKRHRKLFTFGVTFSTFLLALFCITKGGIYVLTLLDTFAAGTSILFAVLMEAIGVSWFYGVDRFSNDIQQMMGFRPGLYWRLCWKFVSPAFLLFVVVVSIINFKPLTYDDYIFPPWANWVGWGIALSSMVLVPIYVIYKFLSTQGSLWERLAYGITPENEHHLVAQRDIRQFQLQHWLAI

In the case of CC(=O)N[C@H](CCCNC(=N)N)C(=O)N[C@H](CCCNC(=N)N)C(=O)N[C@H](CCCNC(=N)N)C(=O)N[C@H](CCCNC(=N)N)C(=O)N[C@H](CCCNC(=N)N)C(=O)N[C@H](CCCNC(=N)N)C(=O)N[C@H](CCCNC(=N)N)C(=O)N[C@H](CCCNC(=N)N)C(=O)N[C@H](CCCNC(=N)N)C(=O)N[C@@H]1CSSC[C@H](C(=O)N[C@H](CCCNC(=N)N)C(=O)N[C@H](CCCNC(=N)N)C(=O)N[C@H](CCCCN)C(=O)N[C@H](CC(N)=O)C(N)=O)NC(=O)[C@@H](CCC(N)=O)NC1=O [GO-203-2c, Ac-(D)Arg-(D)Arg-(D)Arg-(D)Arg-(D)Arg-(D)Arg-(D)Arg-(D)Arg-(D)Arg-(D)Cys-(D)Gln-(D)Cys-(D)Arg-(D)Arg-(D)Lys-(D)Asn-NH2 disulfide] (Ac-[dR][dR][dR][dR][dR][dR][dR][dR][dR][dC][dQ][dC][dR][dR][dK][dN]-NH2; disulfide 10-12), the “Conversion of disulfide to reduced (dithiol) form” value [1] is reported as “readily re-forms the reduced (dithiol) GO-203-2 peptide”, the “Avg (viable cell number of Groups 1-3)” value [2] is reported as 9.83 and the “% inhibition” value ([2]; vs untreated control) is reported as 58.69%. The “Group-1 (viable cell number, individual well)” value ([2]; well having 10,000 cells) was 9.18, the “Group-2 (viable cell number, individual well)” value ([2]; well having 10,000 cells) was 11.22 and the “Group-3 (viable cell number, individual well)” value ([2]; well having 10,000 cells) was 8.55. The IC50 (muscarinic M2 receptor) was 3 to 8 µM, the “Inhibition of MUC1-CD oligomerization” value (MUC1-CD) was “in an equivalent manner” and the “HNSTD or NOAEL” value ([3]; body surface area basis) was 20 mg/m2/day. The NOAEL ([3]; in vivo, repeat-dose IV, read-out: Highest non-severely toxic dose (HNSTD), also considered the NOAEL) was 1 mg/kg/day, the “Safety margin: human starting dose lower than NOAEL” value ([3]; mg/kg basis) was 12 fold and the “Safety margin: human starting dose lower than NOAEL” value ([3]; mg/m^2 basis) was 6.7 fold. It also gave a solubility (Solubility; 10 mM acetate pH 3.0-4.0, 0.9% NaCl) of over 50 mg/mL, a solubility (Solubility; 10 mM acetate pH 4.0) of 7 to 37 mg/mL (≈ 2.98 to 15.7 mM) and a solubility (Solubility; 1% (v/v) aqueous acetic acid) of over 110 mg/mL. The solubility (Solubility; 10% (v/v) aqueous acetonitrile) was over 110 mg/mL, the “Time without gel formation” value (Solubility; solutions in water, 1% aqueous acetic acid or 10% aqueous acetonitrile) was “at least 5 days” and the solubility (Solubility; water) was over 240 mg/mL. For the same molecule, the IC50 [4] was 3 to 8 µM, the “% Inhibition of cell viability” value (ZR-75-1 breast carcinoma) was 43.6% and the “% Inhibition of cell viability” value (H1650 NSCLC) was 89.0%. For the same molecule, the “% Inhibition of cell viability” value (KW-814 T6 NSCLC) was 70.1%, the “% Inhibition of cell viability” value (MCF-7 breast carcinoma) was 87.7% and the “% Inhibition of cell viability” value [5] was 81.5%. The “% Inhibition of cell viability” value (A549 NSCLC) was 73.1%, the “% Inhibition of cell viability” value (KW-807 LN NSCLC) was 40.3% and the “% Inhibition of cell viability” value (H1975 NSCLC) was 46.2%. The Tumor response ([6]; 1 mg/kg IV daily for 21 days) was “Partial tumor regression” and the Tumor response ([6]; 4 mg/kg IV daily for 21 days) was “complete regression of tumor growth”.

Reference: patent US8685928B2, “Antagonists of MUC1” (Dana-Farber Cancer Institute, Inc., priority 2010, dated 2014)
